Measurements: patent US7977064B2, “Disheveled PDZ modulators” (Genentech, Inc., priority 2006, dated 2011)
“Also recorded” adds a separate entry of the source. Values belong to the substance of their own block, whether it stands above or below them. No end group written: not given here.

Assays:
Dvl2PDZ [1] = molecular target: T1, Dvl2PDZ (Homo sapiens, UniProt O14641); assay: Fluorescence polarization assay, peptides binding to Dvl2PDZ
T1 construct: protein fragments spanning amino acids 248-364 of the full-length Dvl2 were produced; made in house; host or cells: E. coli (pGEX system)
T1 sequence (O14641 248-364): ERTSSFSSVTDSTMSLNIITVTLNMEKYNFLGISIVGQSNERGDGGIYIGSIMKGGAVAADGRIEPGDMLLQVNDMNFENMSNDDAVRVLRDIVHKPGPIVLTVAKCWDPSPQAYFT
Method: The binding affinities of synthetic peptides were also measured by Flourescence polarization assay. Serial dilution of purified Dvl2PDZ domain polypeptide (1-10 μM) was incubated with 10 nM probe peptide (FAM-KWYGWL-COOH) (SEQ ID NO: 169) in PBS, 0.1% Triton X100 as 30 μl volume in 96-well black HE96 plates (LJL Biosystem, Inc, Calif.), and incubated for 15 minutes at room temperature. Polarization measurements were performed in Analyst platereader (LJL Biosystems, Inc., Sunnyvale, Calif.). Ks=536 nM was derived from this assay by non-linear regression fitting with KaleidaGraph™. Competition experiments were performed by addition of serial dilution of the free peptides (0-500 μM) to solution with 10 nM probe and 1 μM Dvl2PDZ. The polarization was measured and IC50 values were derived as described above. Ki values were calculated as described previously.

[2] = system: β-catenin protein level in HEK293S cells; assay: Western blot of β-catenin protein level in HEK293S cells; type: cell-based; conditions: 20 μM peptide, 24 hours, compared to DMSO and PEN
Method: HEK293S cells were treated with 20 μM DVLp and PEN for 24 hours. Cell lysate was prepared and subjected to SDS-PAGE. β-catenin was blotted by poly-clonal anti-β-catenin (Genentech, Inc., South San Francisco).
(§1) Cell culture, transfection and peptide treatment: HEK293 and H1703 were propagated according to the instructions from American Type Culture Collection. HEK293 cells were transfected with FuGene6 according to the manufacturer's instructions (Roche Molecular Biochemicals) at cell confluence of 50%. H1703 cells were transfected with Lipofectamine according to manufacturer's instruction at cell confluence of 80%. Cells were treated with medium containing peptide (5 μM-40 μM) 24 hours after transfection, and were routinely harvested 24 hours after the peptide treatment for additional assays.
Western Blot: Harvested cells were lysed with SIC lysis buffer, the supernatant was subjected to SDS-PAGE, which was transferred, blocked and blotted with proper primary antibody by a standard western blot protocol. Fluorescence labeled secondary antibodies (Alexa goat anti-mouse or anti-rabbit) were added and the results were analyzed by Li-core™.

[3] = system: Wnt3a-stimulated β-catenin signaling in HEK293S cells; assay: TOPGLOW luciferase reporter assay in HEK293S cells; type: cell-based; conditions: for Effect on Wnt3a-stimulated transcriptional activity (TopGlow): peptide up to 20 μM in medium
Method: HEK293S cells were transfected with the reporter plasmid pTOPGLOW combined with pRL reporter. Cell extract was prepared and the luciferase activity was measured. The relative luciferase unit (RLU) is TopGlow luciferase activity divided by Renila luciferase activity. The fold of activation is the RLU ratio between the Wnt3a-stimulated and non-stimulated cells. Cells were treated with either 10 μM (light bar) or 20 μM (dark bar) peptide ligands.
as §1
TOPGLOW assay: Cells were plated in 12-well plates. The TOPGLOW reporter plasmid was transfected transiently into cells as described above. TCF-mediated gene transcription was determined by pTOPGLOW luciferase activity, which was normalized to relative luciferase activities of pRL reporter (cotransfected internal control). All experiments were performed duplicated.

Dvl2PDZ [4] = molecular target: T1, Dvl2PDZ; assay: Competition ELISA, peptides binding to Dvl2PDZ
Source text: Many methods are known and can be used to identify the binding affinities of binding molecules (e.g. peptides, proteins, small molecules, etc.); for example, binding affinities can be determined as IC50 values using competition ELISAs. The IC50 value is defined as the concentration of binder which blocks 50% of Dvl PDZ domain binding to a ligand. For example, in solid phase assays, assay plates may be prepared by coating microwell plates (preferably treated to efficiently adsorb protein) with neutravidin, avidin or streptavidin. […] After further washing, the binding reactions are detected, often with an antibody recognizing the non-PDZ fusion partner and a labeled (such as horseradish peroxidase (HRP), alkaline phosphatase (AP), or a fluorescent tag such as fluorescein) secondary antibody recognizing the primary antibody. The plates are then developed with the appropriate substrate (depending on the label) and the signal quantified, such as using a spectrophotometric plate reader. […] Thus the ability of the various molecules to inhibit PDZ domain from binding a known PDZ domain binder can be measured.
Affinity assays—The binding affinities of peptides for Dvl2PDZ were determined as IC50 values using a competition ELISA, as previously described. […]

- Affinity lower than that of D1 (Dvl2PDZ [1]; ratio of Ki values): 6 fold
Substance: Ac-GEIVLWSDIPG-NH2 [Peptide N3, G E I V L W S D I P G]

Substance: Ac-RQTKIVWFQNRRMKKGEIVLWSDIPG [DVLp_N3]
- β-catenin level in whole cell lysate upon Wnt3a stimulation [2]: significantly lower β-catenin levels
- β-catenin level in whole cell lysate upon Wnt3a stimulation ([2]; listed as Dvlp_N3): reduced the Wnt-stimulated increase in β-catenin protein level
- Effect on Wnt3a-stimulated transcriptional activity (TopGlow) ([3]; HEK293S cells): inhibited Wnt3a-stimulated transcriptional activity significantly; also recorded: blocked the Wnt-stimulated β-catenin signaling
- Effect on Wnt3a-stimulated transcriptional activity (TopGlow) ([3]; HEK293S cells, listed as Dvlp_N3): significantly blocked the Wnt-stimulated increase in β-catenin signaling
- Dose dependence of inhibition of Wnt-stimulated β-catenin signaling ([3]; HEK293S cells, two independent experiments): dose-dependent
- Inhibition of Wnt3a-stimulated transcriptional activity ([3]; HEK293 cells, peptide 5-20 μM): up to 80%

Substance: Ac-RQTKIWFQNRRMKWKK [PEN, reference compound]
- Effect on Wnt3a-stimulated transcriptional activity (TopGlow) ([3]; HEK293S cells): did not show an inhibition effect

- IC50 (Dvl2PDZ [4]): 0.93 µM
Substance: Ac-KWYGWF [Peptide D2, K W Y G W F]

- Ki (Dvl2PDZ [1]; competition with 10 nM FAM-KWYGWL-COOH probe, 1 μM Dvl2PDZ, read-out: Ki measured by Flourescence polarization assay): 725 nM
Substance: Ac-KWYGWL-OH [Peptide D1, K W Y G W L]

- IC50 (Dvl2PDZ [4]): 242 µM
Substance: Ac-KGFGML-OH [Peptide D5, K G F G M L]
